# Like-named read-outs stand apart in the source and are kept apart here.
# Biological target: HiBit-WIZ fusion protein (Homo sapiens, UniProt O95785+Q96SW2)
# Experiment: Quantification of WIZ protein levels in HiBit tag fusion protein assay (WIZ HiBit assay in 293T cells)
# Format: cell-based
# Set-up: Dmax: dose or concentration left out as unconfirmed
# Details: for Dmax / remaining activity at up to 25 µM / remaining activity: HEK-293T; for Dmax / remaining activity at up to 25 µM / % degradation of WIZ (100-Amax) / WIZ Amax / remaining activity: 293T cells; for remaining activity at up to 25 µM / WIZ Amax: DMSO-normalized, curve-fitted percentage of WIZ-HiBit remaining at 25 uM; for remaining activity at up to 25 µM: read-out: WIZ Amax; for DC50: read-out: WIZ AC50; for % degradation of WIZ (100-Amax): at 25 uM; for remaining activity: read-out: WIZ Amax, DMSO-normalized, curve-fitted percentage of WIZ-HiBit remaining at 25 uM
# [1] = 100 minus Amax, read-out: % degradation of WIZ (100-Amax)
# [2] = WIZ HiBit assay in 293T cells, 10-point, 5-fold dose response, highest concentration 25 μM, about 18 hours
# [3] = read-out: % degradation of WIZ (100-Amax), 100 minus Amax
# Sequence of HiBit-WIZ fusion protein (O95785 whole entry, the tested form may be a part): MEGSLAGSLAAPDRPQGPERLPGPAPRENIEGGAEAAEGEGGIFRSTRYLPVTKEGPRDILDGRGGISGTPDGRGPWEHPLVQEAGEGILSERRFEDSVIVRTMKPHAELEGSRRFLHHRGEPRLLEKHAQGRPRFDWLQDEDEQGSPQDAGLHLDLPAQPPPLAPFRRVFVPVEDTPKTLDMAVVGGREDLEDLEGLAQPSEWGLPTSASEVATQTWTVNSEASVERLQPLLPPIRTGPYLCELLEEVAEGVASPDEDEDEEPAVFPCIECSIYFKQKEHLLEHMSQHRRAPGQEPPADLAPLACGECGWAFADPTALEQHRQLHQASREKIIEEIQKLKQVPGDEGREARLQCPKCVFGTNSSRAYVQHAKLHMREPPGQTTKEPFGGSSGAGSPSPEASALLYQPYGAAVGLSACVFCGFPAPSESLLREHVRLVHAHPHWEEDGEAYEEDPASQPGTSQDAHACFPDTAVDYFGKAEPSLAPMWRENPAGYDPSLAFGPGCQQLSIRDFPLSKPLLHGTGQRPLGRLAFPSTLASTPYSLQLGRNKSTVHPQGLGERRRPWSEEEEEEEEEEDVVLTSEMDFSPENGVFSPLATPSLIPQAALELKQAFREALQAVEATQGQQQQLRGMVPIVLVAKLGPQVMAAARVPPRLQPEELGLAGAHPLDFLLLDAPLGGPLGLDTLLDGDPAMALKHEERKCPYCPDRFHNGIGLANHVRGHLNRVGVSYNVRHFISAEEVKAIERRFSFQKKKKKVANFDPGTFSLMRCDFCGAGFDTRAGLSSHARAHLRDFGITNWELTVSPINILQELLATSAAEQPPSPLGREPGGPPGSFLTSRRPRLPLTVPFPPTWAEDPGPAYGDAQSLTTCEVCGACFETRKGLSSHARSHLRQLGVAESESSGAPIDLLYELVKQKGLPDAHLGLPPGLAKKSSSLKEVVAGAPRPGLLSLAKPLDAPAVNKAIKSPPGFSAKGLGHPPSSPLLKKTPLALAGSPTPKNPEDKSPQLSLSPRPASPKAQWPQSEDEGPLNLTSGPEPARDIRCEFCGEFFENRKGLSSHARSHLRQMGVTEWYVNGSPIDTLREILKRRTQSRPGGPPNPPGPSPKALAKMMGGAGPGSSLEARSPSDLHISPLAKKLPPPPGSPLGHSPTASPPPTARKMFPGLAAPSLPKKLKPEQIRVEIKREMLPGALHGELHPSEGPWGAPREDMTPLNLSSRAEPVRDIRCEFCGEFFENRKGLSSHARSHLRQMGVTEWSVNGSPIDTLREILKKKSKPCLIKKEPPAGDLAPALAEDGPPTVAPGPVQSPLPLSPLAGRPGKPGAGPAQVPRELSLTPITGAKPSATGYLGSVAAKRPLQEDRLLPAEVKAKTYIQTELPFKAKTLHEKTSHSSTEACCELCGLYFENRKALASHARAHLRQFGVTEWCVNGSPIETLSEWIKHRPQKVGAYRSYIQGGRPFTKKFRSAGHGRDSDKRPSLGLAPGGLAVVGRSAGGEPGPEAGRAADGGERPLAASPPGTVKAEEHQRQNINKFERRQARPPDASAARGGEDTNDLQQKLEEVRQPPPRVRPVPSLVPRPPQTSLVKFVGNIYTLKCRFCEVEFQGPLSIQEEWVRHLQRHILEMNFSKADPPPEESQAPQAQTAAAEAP
# Sequence of HiBit-WIZ fusion protein (Q96SW2 whole entry, the tested form may be a part): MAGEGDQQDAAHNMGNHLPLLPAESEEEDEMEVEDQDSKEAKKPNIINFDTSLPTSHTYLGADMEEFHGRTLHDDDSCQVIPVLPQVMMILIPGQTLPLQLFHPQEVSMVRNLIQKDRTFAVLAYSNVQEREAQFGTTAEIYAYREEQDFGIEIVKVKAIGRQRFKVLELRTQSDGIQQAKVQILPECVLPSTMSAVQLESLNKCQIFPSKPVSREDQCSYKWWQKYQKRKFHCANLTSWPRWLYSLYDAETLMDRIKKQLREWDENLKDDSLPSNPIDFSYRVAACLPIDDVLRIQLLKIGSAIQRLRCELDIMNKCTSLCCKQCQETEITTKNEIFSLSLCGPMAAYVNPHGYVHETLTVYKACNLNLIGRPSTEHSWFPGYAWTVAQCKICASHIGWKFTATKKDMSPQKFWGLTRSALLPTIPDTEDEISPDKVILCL
# Sequence of HiBit-WIZ fusion protein (Q16531 whole entry partner, the tested form may be a part): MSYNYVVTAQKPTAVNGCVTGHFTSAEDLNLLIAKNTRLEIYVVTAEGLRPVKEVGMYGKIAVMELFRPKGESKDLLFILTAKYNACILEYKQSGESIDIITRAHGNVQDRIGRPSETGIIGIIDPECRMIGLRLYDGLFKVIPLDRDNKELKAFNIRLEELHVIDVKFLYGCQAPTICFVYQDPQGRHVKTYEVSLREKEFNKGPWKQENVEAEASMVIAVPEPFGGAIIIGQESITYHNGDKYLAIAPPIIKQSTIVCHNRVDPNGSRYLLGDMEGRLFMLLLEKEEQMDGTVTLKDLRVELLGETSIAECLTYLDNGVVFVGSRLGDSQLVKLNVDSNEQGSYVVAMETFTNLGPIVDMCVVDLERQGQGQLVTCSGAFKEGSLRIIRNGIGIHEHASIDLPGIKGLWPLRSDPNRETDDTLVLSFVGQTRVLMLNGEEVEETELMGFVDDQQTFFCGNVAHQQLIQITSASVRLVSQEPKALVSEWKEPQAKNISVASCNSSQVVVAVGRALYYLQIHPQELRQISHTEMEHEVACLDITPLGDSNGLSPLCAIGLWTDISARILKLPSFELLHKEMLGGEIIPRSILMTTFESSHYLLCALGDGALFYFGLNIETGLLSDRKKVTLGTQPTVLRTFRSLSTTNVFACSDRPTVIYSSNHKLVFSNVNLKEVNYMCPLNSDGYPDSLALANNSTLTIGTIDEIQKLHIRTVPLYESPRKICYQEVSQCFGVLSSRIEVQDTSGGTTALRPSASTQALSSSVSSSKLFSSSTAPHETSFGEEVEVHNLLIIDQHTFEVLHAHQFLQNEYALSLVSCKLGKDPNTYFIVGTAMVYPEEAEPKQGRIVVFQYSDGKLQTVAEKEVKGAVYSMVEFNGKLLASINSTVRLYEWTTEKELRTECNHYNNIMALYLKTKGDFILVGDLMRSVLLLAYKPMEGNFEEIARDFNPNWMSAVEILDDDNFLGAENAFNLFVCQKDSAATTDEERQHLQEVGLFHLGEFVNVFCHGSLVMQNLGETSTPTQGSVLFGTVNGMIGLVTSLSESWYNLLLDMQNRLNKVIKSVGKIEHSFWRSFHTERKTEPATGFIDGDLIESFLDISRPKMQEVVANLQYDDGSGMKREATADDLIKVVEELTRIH
SMILES,Dmax [1] [%],remaining activity at up to 25 µM [%],DC50 [2] [nM],% degradation of WIZ (100-Amax) (100 minus Amax) [%],WIZ Amax [%],Dmax [3] [%],remaining activity [%],AC50 [2] [nM]
O=C1CCC(N2Cc3cc(OC[C@H]4CCCCN4Cc4ccc(-n5nccn5)cc4)ccc3C2=O)C(=O)N1 (stereo partly drawn) [Compound I-50eg],99.6,0.4,4,–,–,–,–,–
O=C1CCC(N2Cc3cc(OC[C@@H]4CCCCN4C(=O)c4ncn(-c5ccccc5)n4)ccc3C2=O)C(=O)N1 (stereo partly drawn) [Compound I-72dt],47.2,52.8,> 25000,–,–,–,–,–
O=C1CCC(N2Cc3cc(OC[C@@H]4CCCCN4C(=O)c4ccnnc4)ccc3C2=O)C(=O)N1 (stereo partly drawn) [Compound I-72kc],9.4,90.6,> 25000,–,–,–,–,–
"CCN1C2CCC(C2)C1COc1ccc2c(c1)CN(C1CCC(=O)NC1=O)C2=O (single isomer, unassigned) [I-255 (Isomer 2), 3-(5-((endo-2-ethyl-2-azabicyclo[2.2.1]heptan-3-yl)methoxy)-1-oxoisoindolin-2-yl)piperidine-2,6-dione]",–,–,98,28.8,71.2,–,–,–
COc1c(F)cc(C(=O)N2CCCC[C@H]2COc2ccc3c(c2)CN(C2CCC(=O)NC2=O)C3=O)cc1F (stereo partly drawn) [Compound I-72eg],72.1,27.9,2250,–,–,–,–,–
CCCCc1cnc(C(=O)N2CCCC[C@H]2COc2ccc3c(c2)CN(C2CCC(=O)NC2=O)C3=O)nc1OC (stereo partly drawn) [Compound I-72aw],60.4,39.6,8520,–,–,–,–,–
COc1cc(CN2CCCC[C@@H]2COc2ccc3c(c2)CN(C2CCC(=O)NC2=O)C3=O)ccc1C (stereo partly drawn) [Compound I-50eu],99.3,0.7,3,–,–,–,–,–
Cc1cc(-n2c(C)cc(C(=O)N3CCCC[C@H]3COc3ccc4c(c3)CN(C3CCC(=O)NC3=O)C4=O)c2C)no1 (stereo partly drawn) [Compound I-72iu],71.7,28.3,2000,–,–,–,–,–
O=C1CCC(N2Cc3cc(OC[C@@H]4CCCCN4Cc4ccc(N5CCCC5)nc4)ccc3C2=O)C(=O)N1 (stereo partly drawn) [Compound I-50ak],81.3,18.7,347,–,–,–,–,–
Cn1nc(C(=O)N2CCCC[C@H]2COc2ccc3c(c2)CN(C2CCC(=O)NC2=O)C3=O)cc1-c1ccccc1 (stereo partly drawn) [Compound I-72ir],35.7,64.3,> 25000,–,–,–,–,–
"COc1ccccc1CN1CCCC[C@@H]1COc1ccc2c(c1)CN(C1CCC(=O)NC1=O)C2=O (stereo partly drawn) [Compound I-133, 3-(5-(((R)-1-(2-methoxybenzyl)piperidin-2-yl)methoxy)-1-oxoisoindolin-2-yl)piperidine-2,6-dione]",–,–,8.8,–,–,83.3,16.7,–
Cn1nnc2cc(CN3CCCC[C@H]3COc3ccc4c(c3)CN(C3CCC(=O)NC3=O)C4=O)ccc21 (stereo partly drawn) [Compound I-50ah],44.4,55.6,> 25000,–,–,–,–,–
"O=C1CCC(N2Cc3cc(OC[C@H]4CCCCN4Cc4ccc5c(c4)OCO5)ccc3C2=O)C(=O)N1 (stereo partly drawn) [Compound I-137, 3-(5-(((R)-1-(benzo[d][1,3]dioxol-5-ylmethyl)piperidin-2-yl)methoxy)-1-oxoisoindolin-2-yl)piperidine-2,6-dione]",–,–,1.5,–,–,90,10,–
N#Cc1ccn2cc(CN3CCCC[C@@H]3COc3ccc4c(c3)CN(C3CCC(=O)NC3=O)C4=O)nc2c1 (stereo partly drawn) [Compound I-50dt],67,33,2740,–,–,–,–,–
O=C1CCC(N2Cc3cc(OC[C@H]4CCCCN4Cc4cn[nH]c4)ccc3C2=O)C(=O)N1 (stereo partly drawn) [Compound I-50an],82.2,17.8,1710,–,–,–,–,–
CCN1CCC[C@@H](C(=O)N2CCCC[C@H]2COc2ccc3c(c2)CN(C2CCC(=O)NC2=O)C3=O)C1 (stereo partly drawn) [Compound I-72it],5.9,94.1,> 25000,–,–,–,–,–
O=C1CCC(N2Cc3cc(OC[C@@H]4CCCCN4Cc4cnn(Cc5ccccc5)c4)ccc3C2=O)C(=O)N1 (stereo partly drawn) [Compound I-50ck],83.2,16.8,766,–,–,–,–,–
O=C1CCC(N2Cc3cc(OC[C@H]4CCCCN4Cc4ccnc5[nH]ccc45)ccc3C2=O)C(=O)N1 (stereo partly drawn) [Compound I-50dk],87,13,147,–,–,–,–,–
CN1CCCC1C(=O)N1CCCC[C@@H]1COc1ccc2c(c1)CN(C1CCC(=O)NC1=O)C2=O (stereo partly drawn) [Compound I-72dd],19.5,80.5,> 25000,–,–,–,–,–
O=C1CCC(N2Cc3cc(OC[C@@H]4CCCCN4C(=O)C4CCCOC4)ccc3C2=O)C(=O)N1 (stereo partly drawn) [Compound I-72gj],2.3,97.7,> 25000,–,–,–,–,–
"O=C1CCC(N2Cc3cc(OC[C@H]4CCCCN4CC4CC(O)C4)ccc3C2=O)C(=O)N1 (stereo partly drawn) [I-141a, I-141b, 3-(5-(((R)-1-(((1r,3R)-3-hydroxycyclobutyl)methyl)piperidin-2-yl)methoxy)-1-oxoisoindolin-2-yl)piperidine-2,6-dione and 3-(5-(((R)-1-(((1s,3S)-3-hydroxycyclobutyl)methyl)piperidin-2-yl)methoxy)-1-oxoisoindolin-2-yl)piperidine-2,6-dione]",–,–,–,72.36,27.64,–,–,2460

# The next lines start with results.
Dmax [1] [%],remaining activity at up to 25 µM [%],DC50 [2] [nM],% degradation of WIZ (100-Amax) (100 minus Amax) [%],WIZ Amax [%],SMILES,Dmax [3] [%],remaining activity [%],AC50 [2] [nM]
91.8,8.17,140,–,–,"CO[C@H]1C[C@H](CN2CCCC[C@@H]2COc2ccc3c(c2)CN(C2CCC(=O)NC2=O)C3=O)C1 (stereo partly drawn) [Compound I-97, 3-(5-(((R)-1-(((1r,3R)-3-methoxycyclobutyl)methyl)piperidin-2-yl)methoxy)-1-oxoisoindolin-2-yl)piperidine-2,6-dione]",–,–,–
86.1,13.9,4,–,–,"O=C1CCC(N2Cc3cc(OC[C@H]4CCCCN4CCOCc4ccccc4)ccc3C2=O)C(=O)N1 (stereo partly drawn) [Compound I-183, 3-(5-(((R)-1-(2-(benzyloxy)ethyl)piperidin-2-yl)methoxy)-1-oxoisoindolin-2-yl)piperidine-2,6-dione]",–,–,–
94.3,5.71,0.22,–,–,"O=C1CCC(N2Cc3cc(OC[C@H]4CCCCN4Cc4ccc(C5(C(F)(F)F)CC5)cc4)ccc3C2=O)C(=O)N1 (stereo partly drawn) [Compound I-173, 3-(1-oxo-5-(((R)-1-(4-(1-(trifluoromethyl)cyclopropyl)benzyl)piperidin-2-yl)methoxy)isoindolin-2-yl)piperidine-2,6-dione]",–,–,–
94.4,5.61,40,–,–,"CCN1CCC(c2ccccc2CN2CCCC[C@@H]2COc2ccc3c(c2)CN(C2CCC(=O)NC2=O)C3=O)CC1 (stereo partly drawn) [Compound I-124, 3-(5-(((R)-1-(2-(1-ethylpiperidin-4-yl)benzyl)piperidin-2-yl)methoxy)-1-oxoisoindolin-2-yl)piperidine-2,6-dione]",–,–,–
94.8,5.23,55,–,–,"CC(C)(C)OC(=O)N1CCN(c2ccccc2CN2CCCC[C@@H]2COc2ccc3c(c2)CN(C2CCC(=O)NC2=O)C3=O)CC1 (stereo partly drawn) [Compound I-105, Tert-butyl 4-(2-(((2R)-2-(((2-(2,6-dioxopiperidin-3-yl)-1-oxoisoindolin-5-yl)oxy)methyl)piperidin-1-yl)methyl)phenyl)piperazine-1-carboxylate]",–,–,–
78.8,21.2,4.2,–,–,"COc1ccc(CN2CCCC[C@@H]2COc2ccc3c(c2)CN(C2CCC(=O)NC2=O)C3=O)cc1C#N (stereo partly drawn) [Compound I-196, 5-(((2R)-2-(((2-(2,6-dioxopiperidin-3-yl)-1-oxoisoindolin-5-yl)oxy)methyl)piperidin-1-yl)methyl)-2-methoxybenzonitrile]",–,–,–
2.9,97.1,> 25000,–,–,N#CC1(c2cc(C(=O)N3CCCC[C@H]3COc3ccc4c(c3)CN(C3CCC(=O)NC3=O)C4=O)ccn2)CC1 (stereo partly drawn) [Compound I-72y],–,–,–
93.7,6.3,76,–,–,O=C1CCC(N2Cc3cc(OC[C@H]4CCCCN4Cc4cc(F)c(F)c(F)c4)ccc3C2=O)C(=O)N1 (stereo partly drawn) [Compound I-144],–,–,–
–,–,> 25000,15.6,84.4,"CCN1CCC[C@H]1C(C)Oc1ccc2c(c1)CN(C1CCC(=O)NC1=O)C2=O (single isomer, unassigned) [Compound I-27]",–,–,–
73.5,26.6,2,–,–,"CC(C)(C)N1CCN(c2ccc(CN3CCCC[C@@H]3COc3ccc4c(c3)CN(C3CCC(=O)NC3=O)C4=O)cc2)CC1 (stereo partly drawn) [Compound I-229, 3-(5-(((R)-1-(4-(4-(tert-butyl)piperazin-1-yl)benzyl)piperidin-2-yl)methoxy)-1-oxoisoindolin-2-yl)piperidine-2,6-dione]",–,–,–
98.1,1.93,25,–,–,"O=C1CCC(N2Cc3cc(OC[C@H]4CCCCN4Cc4ccccc4N4CCN(CC5CCOCC5)CC4)ccc3C2=O)C(=O)N1 (stereo partly drawn) [Compound I-108, 3-(1-oxo-5-(((R)-1-(2-(4-((tetrahydro-2H-pyran-4-yl)methyl)piperazin-1-yl)benzyl)piperidin-2-yl)methoxy)isoindolin-2-yl)piperidine-2,6-dione]",–,–,–
–,–,> 25000,34.7,65.3,"CCN1CCCC(C)(C)C1COc1ccc2c(c1)CN(C1CCC(=O)NC1=O)C2=O (single isomer, unassigned) [Compound I-19, 3-(5-((1-ethyl-3,3-dimethylpiperidin-2-yl)methoxy)-1-oxoisoindolin-2-yl)piperidine-2,6-dione]",–,–,–

# Source: patent US11566022B2, “3-(5-methoxy-1-oxoisoindolin-2-yl)piperidine-2,6-dione derivatives and uses thereof” (NOVARTIS AG, priority 2019, dated 2023)
